In patent publication US20240366589A1, “NHE3-BINDING COMPOUNDS AND METHODS FOR INHIBITING PHOSPHATE TRANSPORT” (Ardelyx, Inc., priority 2013, published 2024):

How the values were obtained:
Human NHE3 = target: T1, Human NHE3 (Homo sapiens, UniProt P48764); experiment: Cell-based NHE3 activity under prompt conditions (OK cells, BCECF pH recovery), human NHE3; details: prompt conditions
T1 construct: expressed in transfected cells; host or cells: Opossum kidney (OK) cells (ATCC), electroporation
T1 sequence (P48764 26-834): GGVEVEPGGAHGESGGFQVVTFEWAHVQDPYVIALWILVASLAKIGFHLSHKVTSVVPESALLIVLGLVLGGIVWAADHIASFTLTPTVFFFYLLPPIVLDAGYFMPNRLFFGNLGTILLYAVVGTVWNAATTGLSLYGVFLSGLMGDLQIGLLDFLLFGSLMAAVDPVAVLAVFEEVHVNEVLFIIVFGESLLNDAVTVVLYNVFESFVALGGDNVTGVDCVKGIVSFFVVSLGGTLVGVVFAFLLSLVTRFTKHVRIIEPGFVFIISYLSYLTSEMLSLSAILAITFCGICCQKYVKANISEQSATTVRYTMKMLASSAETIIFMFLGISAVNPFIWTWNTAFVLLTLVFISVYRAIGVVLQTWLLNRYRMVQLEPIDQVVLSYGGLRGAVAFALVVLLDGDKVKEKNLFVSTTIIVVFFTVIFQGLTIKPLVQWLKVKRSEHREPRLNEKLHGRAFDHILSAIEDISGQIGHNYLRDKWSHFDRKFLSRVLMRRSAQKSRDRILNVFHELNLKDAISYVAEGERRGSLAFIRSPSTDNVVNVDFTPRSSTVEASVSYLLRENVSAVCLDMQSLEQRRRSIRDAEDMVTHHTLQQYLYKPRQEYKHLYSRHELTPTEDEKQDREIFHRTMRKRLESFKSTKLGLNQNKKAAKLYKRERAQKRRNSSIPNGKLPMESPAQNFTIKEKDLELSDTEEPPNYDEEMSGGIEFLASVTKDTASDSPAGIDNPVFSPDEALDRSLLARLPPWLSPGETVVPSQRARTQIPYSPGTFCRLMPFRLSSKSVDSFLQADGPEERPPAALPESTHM
Method in brief: (§1)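 Fluorometric NHE3 antiport assay in opossum kidney cells carrying rat or human NHE3, using BCECF pH recovery after NH4Cl-prepulse acid loading. pIC50 values derive from initial rates averaged across at least two replicates.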

Rat NHE3 = target: T2, Rat NHE3 (Rattus norvegicus, UniProt P26433); experiment: Cell-based NHE3 activity under prompt conditions (OK cells, BCECF pH recovery), rat NHE3; details: prompt conditions
T2 construct: expressed in transfected cells; host or cells: Opossum kidney (OK) cells (ATCC), electroporation
Method in brief: as §1

[1] = system: absorption of sodium from the intestinal lumen; experiment: Inhibition of intestinal sodium absorption: urinary sodium (uNa) 16 h after single oral dose in rats; type: in vivo, rat; details: oral gavage, 16 h post-dose
Method in brief: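 Urinary sodium mass over the 16 h after one oral gavage dose, measured by cation-exchange ion chromatography, reported as percent of water-vehicle group; ANOVA plus Dunnett's post hoc test. Groups of six 8-week-old Sprague-Dawley rats, housed individually in metabolic cages post-dose, fed and watered freely.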

[2] = system: absorption of sodium from the intestinal lumen; experiment: Fecal form score (FFS) 16 h after oral dose in rats; type: in vivo, rat; details: oral gavage, 16 h post-dose, scale 1-5
Method in brief: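 Fecal form was scored at 16 h post-dose on a 1–5 wetness scale (normal pellet to liquid stream), with two independent observations averaged across six rats per group. Animals were 8-week-old Sprague-Dawley rats given test compound or water orally in the late afternoon and kept in metabolic cages.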

[3] = system: phosphorus and calcium levels in the urine of rats; experiment: Urinary excretion of phosphate and calcium in rats (16 h overnight urine); type: in vivo, rat; details: rats, oral gavage, 16 h post-dose

T2 sequence (P26433 29-831): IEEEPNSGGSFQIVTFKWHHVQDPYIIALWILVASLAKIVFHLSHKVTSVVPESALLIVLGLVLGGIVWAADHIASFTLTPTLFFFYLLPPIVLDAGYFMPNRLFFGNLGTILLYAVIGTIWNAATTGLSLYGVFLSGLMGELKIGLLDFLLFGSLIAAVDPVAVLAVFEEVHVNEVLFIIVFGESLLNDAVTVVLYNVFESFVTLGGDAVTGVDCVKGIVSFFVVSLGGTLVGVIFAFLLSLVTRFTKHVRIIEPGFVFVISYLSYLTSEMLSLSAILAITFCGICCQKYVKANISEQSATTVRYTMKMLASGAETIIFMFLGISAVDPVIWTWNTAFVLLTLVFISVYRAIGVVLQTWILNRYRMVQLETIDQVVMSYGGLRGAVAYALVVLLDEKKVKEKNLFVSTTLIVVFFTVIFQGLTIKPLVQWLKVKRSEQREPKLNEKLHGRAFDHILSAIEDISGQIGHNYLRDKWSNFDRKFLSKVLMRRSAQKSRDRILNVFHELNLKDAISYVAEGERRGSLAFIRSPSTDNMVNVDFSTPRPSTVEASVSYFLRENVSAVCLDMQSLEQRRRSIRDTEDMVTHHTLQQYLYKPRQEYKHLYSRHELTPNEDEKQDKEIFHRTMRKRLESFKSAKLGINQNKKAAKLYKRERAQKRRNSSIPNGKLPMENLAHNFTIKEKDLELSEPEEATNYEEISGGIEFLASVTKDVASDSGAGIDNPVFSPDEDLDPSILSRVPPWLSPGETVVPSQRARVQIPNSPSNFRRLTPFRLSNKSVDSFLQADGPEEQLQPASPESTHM

Prompt Human NHE3 pIC50 (Human NHE3)	Prompt Rat NHE3 pIC50 (Rat NHE3)	SMILES	Urine Na % of control ([1]; dose 1 mg/kg) [%]	Urine Na % of control ([1]; dose 3 mg/kg) [%]	Urine Na % of control ([1]; dose 10 mg/kg) [%]	Fecal Form Score average ([2]; dose 1 mg/kg)	Fecal Form Score average ([2]; dose 3 mg/kg)	Fecal Form Score average ([2]; dose 10 mg/kg)	Urine P % of control ([3]; dose 1 mg/kg) [%]	Urine P % of control ([3]; dose 3 mg/kg) [%]	Urine P % of control ([3]; dose 10 mg/kg) [%]	IC50 (Rat NHE3; read-out: Prompt Rat NHE3 pIC50 (converted)) [nM]
7.90	7.00	CN1Cc2c(Cl)cc(Cl)cc2[C@H](c2cccc(S(=O)(=O)N(C)CCOCCOCCNC(=O)NCCCN(CCCNC(=O)NCCOCCOCCN(C)S(=O)(=O)c3cccc([C@@H]4CN(C)Cc5c(Cl)cc(Cl)cc54)c3)CCCNC(=O)NCCOCCOCCN(C)S(=O)(=O)c3cccc([C@@H]4CN(C)Cc5c(Cl)cc(Cl)cc54)c3)c2)C1 [compound 106]	98	76	20	1	2	4	124	39	64	–
7.00	6.50	CN1Cc2c(Cl)cc(Cl)cc2[C@H](c2cccc(S(=O)(=O)NCCOCCOCCOCCNC(=O)CN(CC(=O)NCCOCCOCCOCCNS(=O)(=O)c3cccc([C@@H]4CN(C)Cc5c(Cl)cc(Cl)cc54)c3)[C@@H]3CCCC[C@H]3N(CC(=O)NCCOCCOCCOCCNS(=O)(=O)c3cccc([C@@H]4CN(C)Cc5c(Cl)cc(Cl)cc54)c3)CC(=O)NCCOCCOCCOCNS(=O)(=O)c3cccc([C@@H]4CN(C)Cc5c(Cl)cc(Cl)cc54)c3)c2)C1 [compound 71]	–	–	80	–	–	1	–	–	40	–
<5.00	5.30	CN1Cc2c(Cl)cc(Cl)cc2[C@H](c2cccc(S(=O)(=O)NCCOCCOCCOCCNC(=O)CCC(CCC(=O)NCCOCCOCCOCCNS(=O)(=O)c3cccc([C@@H]4CN(C)Cc5c(Cl)cc(Cl)cc54)c3)(CCC(=O)NCCOCCOCCOCCNS(=O)(=O)c3cccc([C@@H]4CN(C)Cc5c(Cl)cc(Cl)cc54)c3)NC(=O)c3ccc(-c4ccc(Cl)cc4)cc3)c2)C1 [compound 91]	–	–	77	–	–	1	–	–	56	–
7.30	6.50	CN1Cc2c(Cl)cc(Cl)cc2[C@H](c2cccc(S(=O)(=O)NCCOCCOCCNC(=O)CCC(CCC(=O)NCCOCCOCCNS(=O)(=O)c3cccc([C@@H]4CN(C)Cc5c(Cl)cc(Cl)cc54)c3)(CCC(=O)NCCOCCOCCNS(=O)(=O)c3cccc([C@@H]4CN(C)Cc5c(Cl)cc(Cl)cc54)c3)NC(N)=O)c2)C1 [compound 133]	–	23	–	–	2	–	–	67	–	–
8.10	<5.00	O=C(NCCOCCOCCNS(=O)(=O)c1ccc(O[C@H]2c3ccccc3C[C@@H]2N2CCCCC2)cc1)c1cccc(C(=O)NCCOCCOCCNS(=O)(=O)c2ccc(O[C@H]3c4ccccc4C[C@@H]3N3CCCCC3)cc2)c1 [compound 101]	–	–	64	–	–	1	–	–	81	–
7.00	6.10	N=C(N)Nc1nc(-c2cccc(S(=O)(=O)NCCOCCOCCOCCN)c2)c2cc(Cl)ccc2n1 [compound 12]	–	–	82	–	–	1	–	–	94	–
8.53	8.60	CN(C)[C@H]1Cc2c(Cl)cc(Cl)cc2[C@@H]1Oc1ccc(S(=O)(=O)NCCOCCOCCNC(=O)CCC(C)(N)CCC(=O)NCCOCCOCCNS(=O)(=O)c2ccc(O[C@H]3c4cc(Cl)cc(Cl)c4C[C@@H]3N(C)C)cc2)cc1 [compound 174]	–	37	49	–	1	1	–	55	61	–
8.20	<5.00	O=C(NCCCCNC(=O)NCCOCCOCCNS(=O)(=O)c1ccc(O[C@H]2c3cc(Cl)cc(F)c3C[C@@H]2N2CC[C@@H](O)C2)cc1)NCCOCCOCCNS(=O)(=O)c1ccc(O[C@H]2c3cc(Cl)cc(F)c3C[C@@H]2N2CC[C@@H](O)C2)cc1 [compound 165]	–	–	104	–	–	1	–	–	68	–
7.85	7.20	CN1Cc2c(Cl)cc(Cl)cc2[C@H](c2cccc(S(=O)(=O)NCCOCCOCCOCCNC(=O)CCC(N)(CCC(=O)NCCOCCOCCOCCNS(=O)(=O)c3cccc([C@@H]4CN(C)Cc5c(Cl)cc(Cl)cc54)c3)CCC(=O)NCCOCCOCCOCCNS(=O)(=O)c3cccc([C@@H]4CN(C)Cc5c(Cl)cc(Cl)cc54)c3)c2)C1 [compound 90]	76	30	38	1	1	5	65	58	20	–
8.30	<5.00	CN(C)[C@H]1Cc2ccc(Cl)cc2[C@@H]1Oc1ccc(S(=O)(=O)NCCOCCOCCNC(=O)NCCCCNC(=O)NCCOCCOCCNS(=O)(=O)c2ccc(O[C@H]3c4cc(Cl)ccc4C[C@@H]3N(C)C)cc2)cc1 [compound 116]	–	–	84	–	–	1	–	–	130	–
7.35	6.25	CN1Cc2c(Cl)cc(Cl)cc2[C@H](c2cccc(S(=O)(=O)NCCOCCOCCNC(=O)NCCCN(CCCNC(=O)NCCOCCOCCNS(=O)(=O)c3cccc([C@@H]4CN(C)Cc5c(Cl)cc(Cl)cc54)c3)CCCNC(=O)NCCOCCOCCNS(=O)(=O)c3cccc([C@@H]4CN(C)Cc5c(Cl)cc(Cl)cc54)c3)c2)C1 [compound 77]	80	36	17	2	2	4	82	79	41	–
7.80	7.00	CN1Cc2c(Cl)cc(Cl)cc2[C@H](c2cccc(S(=O)(=O)NCCOCCOCCOCCNC(=O)CC(O)(CC(=O)NCCOCCOCCOCCNS(=O)(=O)c3cccc([C@@H]4CN(C)Cc5c(Cl)cc(Cl)cc54)c3)C(=O)NCCOCCOCCOCCNS(=O)(=O)c3cccc([C@@H]4CN(C)Cc5c(Cl)cc(Cl)cc54)c3)c2)C1 [compound 61]	93	50	21	1	1	3	96	70	67	–

SMILES	Prompt Human NHE3 pIC50 (Human NHE3)	Prompt Rat NHE3 pIC50 (Rat NHE3)	Urine Na % of control ([1]; dose 1 mg/kg) [%]	Urine Na % of control ([1]; dose 3 mg/kg) [%]	Urine Na % of control ([1]; dose 10 mg/kg) [%]	Fecal Form Score average ([2]; dose 1 mg/kg)	Fecal Form Score average ([2]; dose 3 mg/kg)	Fecal Form Score average ([2]; dose 10 mg/kg)	Urine P % of control ([3]; dose 1 mg/kg) [%]	Urine P % of control ([3]; dose 3 mg/kg) [%]	Urine P % of control ([3]; dose 10 mg/kg) [%]	IC50 (Rat NHE3; read-out: Prompt Rat NHE3 pIC50 (converted)) [nM]
CN1Cc2c(Cl)cc(Cl)cc2C(c2cccc(NC(=O)[C@H](O)[C@@H](O)[C@H](O)[C@H](O)CO)c2)C1 (stereo in doubt) [compound 3]	7.60	–	41	–	–	1	–	–	57	–	–	39.8
